Here are results for one molecule from article PMC5114585, “Tomato FK506 Binding Protein 12KD (FKBP12) Mediates the Interaction between Rapamycin and Target of Rapamycin (TOR)” (Frontiers in Plant Science, 2016).

The target of the assay is T1, SlFKBP12 (Solanum lycopersicum, UniProt A0A3Q7ERC2).
T1 construct: gene FKBP12
T1 sequence (A0A3Q7ERC2 1-112): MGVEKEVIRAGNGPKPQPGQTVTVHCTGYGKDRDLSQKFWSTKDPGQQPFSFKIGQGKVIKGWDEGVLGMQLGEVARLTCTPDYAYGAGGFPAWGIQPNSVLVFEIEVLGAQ
Nature of the assay: protein gel shifting assay: native vs denatured extracts of treated seedlings, anti-HA immunoblot. The conditions noted are these: 0, 1, 5, 10 uM rapamycin for 24 h on seedlings; indirect read-out of ternary FKBP12-rapamycin-TOR complex (host Arabidopsis TOR). For orientation: Mobility shift assays separate free from complexed probe on a gel.

Consider `CO[C@H]1C[C@@H]2CC[C@@H](C)[C@@](O)(O2)C(=O)C(=O)N2CCCC[C@H]2C(=O)O[C@H]([C@H](C)C[C@@H]2CC[C@@H](O)[C@H](OC)C2)CC(=O)[C@H](C)/C=C(\C)[C@@H](O)[C@@H](OC)C(=O)[C@H](C)C[C@H](C)/C=C/C=C/C=C/1C` [rapamycin], for which the “protein gel shifting assay: native vs denatured extracts of treated seedlings, a” value was “with increasing of rapamycin, SlFKBP12 protein level displayed a decline trend in native stage”.
